The source of these data is ChEMBL document CHEMBL4196089, “Design, synthesis, biological evaluation and in vivo testing of dual phosphodiesterase 5 (PDE5) and histone deacetylase 6 (HDAC6)-selective inhibitors for the treatment of Alzheimer's disease” (Eur J Med Chem, 2018).

The target in data set [1] is T1, Histone deacetylase 1 (Homo sapiens, UniProt Q13547). The data set is described as follows: Inhibition of full length human recombinant C-terminal FLAG/His-tagged HDAC1 expressed in baculovirus infected sf9 cells using fluorogenic HDAC substrate 3 after 30 mins by fluorescence assay.
T1 sequence (Q13547 whole entry): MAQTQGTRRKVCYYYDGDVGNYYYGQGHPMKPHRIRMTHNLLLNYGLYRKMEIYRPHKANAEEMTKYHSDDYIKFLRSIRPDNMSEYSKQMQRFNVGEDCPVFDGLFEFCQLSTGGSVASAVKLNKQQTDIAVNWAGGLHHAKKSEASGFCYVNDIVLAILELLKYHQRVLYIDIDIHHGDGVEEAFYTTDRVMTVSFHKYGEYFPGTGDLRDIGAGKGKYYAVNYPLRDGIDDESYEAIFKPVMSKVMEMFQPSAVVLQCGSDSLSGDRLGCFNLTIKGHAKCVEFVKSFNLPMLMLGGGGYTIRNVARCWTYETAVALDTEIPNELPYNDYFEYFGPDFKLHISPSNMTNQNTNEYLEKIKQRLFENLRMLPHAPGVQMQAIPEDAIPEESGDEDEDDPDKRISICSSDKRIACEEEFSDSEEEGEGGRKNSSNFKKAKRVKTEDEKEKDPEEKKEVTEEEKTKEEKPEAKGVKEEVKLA
Data set [2] addresses T2, Histone deacetylase 2 (Homo sapiens, UniProt Q92769). The data set is described as follows: Inhibition of full length human recombinant C-terminal His-tagged HDAC2 expressed in baculovirus infected sf9 cells using fluorogenic HDAC substrate 3 after 30 mins by fluorescence assay.
For data set [3], the target named is Histone deacetylase 3/Nuclear receptor corepressor 2 (HDAC3/NCoR2) (Homo sapiens, UniProt O15379). The experiment in a line: Inhibition of full length human recombinant C-terminal His-tagged HDAC3/N-terminal GST-tagged NCOR2 (95 to 489 residues) expressed in baculovirus infected sf9 cells using fluorogenic HDAC substrate 3 after 30 mins by fluorescence assay.
Histone deacetylase 3/Nuclear receptor corepressor 2 (HDAC3/NCoR2), sequence (O15379 whole entry, the tested form may be a part): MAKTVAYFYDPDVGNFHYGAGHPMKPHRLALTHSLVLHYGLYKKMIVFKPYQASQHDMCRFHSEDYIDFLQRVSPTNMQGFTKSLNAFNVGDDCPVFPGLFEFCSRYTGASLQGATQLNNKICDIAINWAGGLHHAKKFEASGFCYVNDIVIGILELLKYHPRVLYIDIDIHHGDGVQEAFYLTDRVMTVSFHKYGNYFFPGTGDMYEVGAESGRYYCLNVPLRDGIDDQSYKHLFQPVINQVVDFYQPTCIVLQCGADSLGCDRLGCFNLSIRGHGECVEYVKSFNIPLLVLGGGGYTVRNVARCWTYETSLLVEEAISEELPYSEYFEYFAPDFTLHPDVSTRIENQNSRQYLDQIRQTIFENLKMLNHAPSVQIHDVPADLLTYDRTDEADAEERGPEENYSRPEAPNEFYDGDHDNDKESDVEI
Histone deacetylase 3/Nuclear receptor corepressor 2 (HDAC3/NCoR2), sequence (Q9Y618 whole entry, further chain, the tested form may be a part): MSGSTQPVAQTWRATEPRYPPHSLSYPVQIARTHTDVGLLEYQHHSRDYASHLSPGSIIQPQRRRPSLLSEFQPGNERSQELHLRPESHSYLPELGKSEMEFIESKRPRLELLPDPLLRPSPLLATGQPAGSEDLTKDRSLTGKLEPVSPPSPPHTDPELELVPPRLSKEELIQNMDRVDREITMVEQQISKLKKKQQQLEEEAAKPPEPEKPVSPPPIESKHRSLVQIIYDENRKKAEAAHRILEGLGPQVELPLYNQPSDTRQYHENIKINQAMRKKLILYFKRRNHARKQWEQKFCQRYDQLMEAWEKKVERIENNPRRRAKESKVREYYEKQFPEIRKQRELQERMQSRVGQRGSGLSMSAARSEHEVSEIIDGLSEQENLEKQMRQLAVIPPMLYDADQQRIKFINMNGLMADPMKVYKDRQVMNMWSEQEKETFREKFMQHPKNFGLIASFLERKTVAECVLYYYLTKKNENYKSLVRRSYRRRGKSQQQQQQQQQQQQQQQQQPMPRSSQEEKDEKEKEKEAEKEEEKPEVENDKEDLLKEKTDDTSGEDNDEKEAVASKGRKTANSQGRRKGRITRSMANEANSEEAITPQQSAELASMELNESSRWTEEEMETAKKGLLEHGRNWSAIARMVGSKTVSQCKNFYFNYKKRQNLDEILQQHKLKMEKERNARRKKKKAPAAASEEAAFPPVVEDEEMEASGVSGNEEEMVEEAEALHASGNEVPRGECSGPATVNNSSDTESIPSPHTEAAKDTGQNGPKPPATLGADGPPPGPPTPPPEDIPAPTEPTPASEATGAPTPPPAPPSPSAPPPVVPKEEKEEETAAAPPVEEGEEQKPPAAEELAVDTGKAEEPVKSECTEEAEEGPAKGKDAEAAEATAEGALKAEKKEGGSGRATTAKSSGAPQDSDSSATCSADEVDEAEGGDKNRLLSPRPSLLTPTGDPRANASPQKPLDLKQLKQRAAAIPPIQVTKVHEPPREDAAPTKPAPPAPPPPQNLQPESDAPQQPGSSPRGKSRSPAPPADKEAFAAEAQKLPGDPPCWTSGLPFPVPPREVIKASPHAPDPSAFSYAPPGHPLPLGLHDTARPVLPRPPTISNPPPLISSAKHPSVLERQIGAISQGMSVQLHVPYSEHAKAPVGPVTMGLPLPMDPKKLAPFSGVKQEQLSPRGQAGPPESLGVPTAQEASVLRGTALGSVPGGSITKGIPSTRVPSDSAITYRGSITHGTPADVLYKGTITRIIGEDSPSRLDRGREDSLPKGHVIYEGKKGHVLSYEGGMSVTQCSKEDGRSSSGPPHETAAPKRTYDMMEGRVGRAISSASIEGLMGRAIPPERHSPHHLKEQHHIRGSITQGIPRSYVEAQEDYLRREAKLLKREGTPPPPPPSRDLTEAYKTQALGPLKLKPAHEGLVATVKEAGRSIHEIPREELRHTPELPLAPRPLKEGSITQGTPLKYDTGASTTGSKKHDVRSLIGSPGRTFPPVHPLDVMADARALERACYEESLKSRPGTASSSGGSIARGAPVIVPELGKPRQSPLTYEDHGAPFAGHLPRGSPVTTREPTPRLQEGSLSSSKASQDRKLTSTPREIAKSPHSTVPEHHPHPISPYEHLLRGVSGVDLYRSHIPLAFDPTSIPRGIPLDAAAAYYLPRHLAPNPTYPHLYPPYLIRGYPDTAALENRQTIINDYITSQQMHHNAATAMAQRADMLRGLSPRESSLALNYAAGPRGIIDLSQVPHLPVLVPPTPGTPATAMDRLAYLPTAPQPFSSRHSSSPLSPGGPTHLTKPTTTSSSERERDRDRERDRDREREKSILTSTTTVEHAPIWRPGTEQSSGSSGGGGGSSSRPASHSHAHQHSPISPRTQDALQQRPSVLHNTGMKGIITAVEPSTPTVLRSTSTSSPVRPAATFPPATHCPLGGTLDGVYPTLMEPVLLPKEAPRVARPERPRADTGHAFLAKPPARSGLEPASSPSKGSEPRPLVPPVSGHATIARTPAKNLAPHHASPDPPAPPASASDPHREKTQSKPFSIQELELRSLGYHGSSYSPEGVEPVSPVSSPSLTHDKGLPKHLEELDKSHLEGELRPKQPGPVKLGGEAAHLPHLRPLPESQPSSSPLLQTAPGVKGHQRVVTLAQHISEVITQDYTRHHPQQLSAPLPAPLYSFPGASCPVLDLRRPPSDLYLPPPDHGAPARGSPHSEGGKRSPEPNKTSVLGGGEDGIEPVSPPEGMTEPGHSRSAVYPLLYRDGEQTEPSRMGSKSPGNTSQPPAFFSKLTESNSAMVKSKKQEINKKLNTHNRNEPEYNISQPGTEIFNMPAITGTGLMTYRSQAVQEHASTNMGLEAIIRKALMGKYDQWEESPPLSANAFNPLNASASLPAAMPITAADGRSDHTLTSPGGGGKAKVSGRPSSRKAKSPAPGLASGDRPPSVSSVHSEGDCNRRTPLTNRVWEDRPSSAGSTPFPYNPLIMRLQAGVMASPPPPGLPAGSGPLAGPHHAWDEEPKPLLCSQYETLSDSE

In data set [4] the target is T3, Protein deacetylase HDAC6 (Homo sapiens, UniProt Q9UBN7).
T3 sequence (Q9UBN7 whole entry): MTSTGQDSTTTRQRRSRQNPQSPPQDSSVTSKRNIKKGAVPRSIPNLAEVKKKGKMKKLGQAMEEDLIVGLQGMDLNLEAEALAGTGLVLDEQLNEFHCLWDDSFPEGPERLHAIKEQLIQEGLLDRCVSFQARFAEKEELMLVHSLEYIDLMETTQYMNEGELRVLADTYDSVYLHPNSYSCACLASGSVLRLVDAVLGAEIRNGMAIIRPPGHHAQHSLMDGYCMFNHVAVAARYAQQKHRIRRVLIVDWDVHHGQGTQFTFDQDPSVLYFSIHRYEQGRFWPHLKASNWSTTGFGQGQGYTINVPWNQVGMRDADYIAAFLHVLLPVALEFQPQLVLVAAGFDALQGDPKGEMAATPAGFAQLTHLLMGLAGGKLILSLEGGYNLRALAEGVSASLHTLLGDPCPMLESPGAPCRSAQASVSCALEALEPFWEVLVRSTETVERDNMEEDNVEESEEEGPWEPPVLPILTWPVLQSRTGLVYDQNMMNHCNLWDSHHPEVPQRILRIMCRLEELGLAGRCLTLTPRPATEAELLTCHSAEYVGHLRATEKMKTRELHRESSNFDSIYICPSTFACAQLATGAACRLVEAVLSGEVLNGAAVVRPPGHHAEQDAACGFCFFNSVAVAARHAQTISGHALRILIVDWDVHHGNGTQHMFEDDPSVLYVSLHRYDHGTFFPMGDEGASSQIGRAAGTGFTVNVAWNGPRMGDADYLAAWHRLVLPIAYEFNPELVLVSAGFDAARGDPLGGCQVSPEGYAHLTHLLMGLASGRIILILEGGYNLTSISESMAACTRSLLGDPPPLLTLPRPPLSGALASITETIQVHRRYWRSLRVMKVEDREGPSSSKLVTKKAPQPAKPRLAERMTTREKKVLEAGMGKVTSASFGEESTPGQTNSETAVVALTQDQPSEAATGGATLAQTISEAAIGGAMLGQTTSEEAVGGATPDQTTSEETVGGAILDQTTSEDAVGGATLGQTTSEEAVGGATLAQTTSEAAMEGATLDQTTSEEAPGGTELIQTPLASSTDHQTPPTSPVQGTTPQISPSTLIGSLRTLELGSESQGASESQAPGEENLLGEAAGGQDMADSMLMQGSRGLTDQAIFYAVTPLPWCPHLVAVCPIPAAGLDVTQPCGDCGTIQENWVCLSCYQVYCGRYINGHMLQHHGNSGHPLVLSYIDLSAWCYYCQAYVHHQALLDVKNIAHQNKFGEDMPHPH
The experiment in a line: Inhibition of full length human recombinant N-terminal GST-tagged HDAC6 expressed in baculovirus infected sf9 cells using fluorogenic HDAC substrate 3 after 30 mins by fluorescence assay.

In data set [5] the target is T4, cGMP-specific 3',5'-cyclic phosphodiesterase (Homo sapiens, UniProt O76074). The experiment in a line: Inhibition of full length human recombinant N-terminal GST-tagged PDE5A1 expressed in baculovirus infected sf9 cells using cGMP as substrate after 30 mins by fluorescence assay.
A short description of data set [6]: Cytotoxicity against human THLE2 cells after 72 hrs by vialight cell proliferation assay. The note with it: read-out: LC50. It counts as cell-based, THLE-2.
The nature of data set [7]: Effective permeability of the compound at 50 uM after 18 hrs by UV spectroscopy based PAMPA. Type of data set: ADME. The note with it: read-out: Peff. In general terms: The PAMPA barrier holds no transporters, so it reflects passive diffusion.
A short description of data set [8]: cells. The note with it: Homo sapiens, SH-SY5Y, 2 h, read-out: FC.
Data set [9] can be described thus: cells. To be noted: Homo sapiens, SH-SY5Y, 2 h, read-out: FC. The source holds these as a separate data set.
The nature of data set [10]: cells. The note with it: Homo sapiens, SH-SY5Y, 2 h, read-out: FC. The source holds these as a separate data set.
A short description of data set [11]: Effective permeability of the compound at 10 uM after 18 hrs by LC-MS/MS based PAMPA. To be noted: read-out: Peff. It counts as ADME.
In data set [12] the target is T4, cGMP-specific 3',5'-cyclic phosphodiesterase. The experiment in a line: Inhibition of PDE5A (unknown origin).
Data set [13] addresses T1, Histone deacetylase 1. The data set is described as follows: Inhibition of HDAC1 (unknown origin).
In data set [14] the target is T2, Histone deacetylase 2. Type of data set: ADME.
Another data set concerns the target Histone deacetylase 3 (Homo sapiens, UniProt O15379). The data set is described as follows: Inhibition of HDAC3 (unknown origin).
Data set [15] deals with T3, Protein deacetylase HDAC6. The experiment in a line: Inhibition of HDAC6 (unknown origin).
Data set [16] addresses cGMP-inhibited 3',5'-cyclic phosphodiesterase 3A (Homo sapiens, UniProt Q14432). The experiment in a line: Inhibition of PDE3A (unknown origin) using FAM-cGMP as substrate by fluorescence assay.
A short description of data set [17]: Inhibition of class-1 HDAC in human SH-SY5Y cells assessed as induction of AcH3K9 level at 500 nM after 0.5 to 2 hrs by Western blot analysis. It counts as cell-based. The note with it: 0.5 µM. (Immunoblotting shows a protein as a band on a membrane.)

T2 sequence (Q92769 whole entry, the tested form may be a part): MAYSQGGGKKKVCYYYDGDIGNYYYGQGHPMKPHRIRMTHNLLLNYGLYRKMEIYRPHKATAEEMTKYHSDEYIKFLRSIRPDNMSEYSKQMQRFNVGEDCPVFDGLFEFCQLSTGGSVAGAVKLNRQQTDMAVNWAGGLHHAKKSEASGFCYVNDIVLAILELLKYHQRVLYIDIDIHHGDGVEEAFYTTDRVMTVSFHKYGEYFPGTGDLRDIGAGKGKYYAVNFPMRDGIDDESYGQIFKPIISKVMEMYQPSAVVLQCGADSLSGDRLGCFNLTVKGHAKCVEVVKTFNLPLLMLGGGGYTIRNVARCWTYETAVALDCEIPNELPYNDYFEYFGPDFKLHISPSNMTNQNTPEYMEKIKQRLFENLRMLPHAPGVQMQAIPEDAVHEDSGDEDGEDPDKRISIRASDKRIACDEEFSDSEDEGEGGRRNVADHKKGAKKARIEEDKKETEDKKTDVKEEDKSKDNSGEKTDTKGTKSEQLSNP
cGMP-inhibited 3',5'-cyclic phosphodiesterase 3A, sequence (Q14432 whole entry): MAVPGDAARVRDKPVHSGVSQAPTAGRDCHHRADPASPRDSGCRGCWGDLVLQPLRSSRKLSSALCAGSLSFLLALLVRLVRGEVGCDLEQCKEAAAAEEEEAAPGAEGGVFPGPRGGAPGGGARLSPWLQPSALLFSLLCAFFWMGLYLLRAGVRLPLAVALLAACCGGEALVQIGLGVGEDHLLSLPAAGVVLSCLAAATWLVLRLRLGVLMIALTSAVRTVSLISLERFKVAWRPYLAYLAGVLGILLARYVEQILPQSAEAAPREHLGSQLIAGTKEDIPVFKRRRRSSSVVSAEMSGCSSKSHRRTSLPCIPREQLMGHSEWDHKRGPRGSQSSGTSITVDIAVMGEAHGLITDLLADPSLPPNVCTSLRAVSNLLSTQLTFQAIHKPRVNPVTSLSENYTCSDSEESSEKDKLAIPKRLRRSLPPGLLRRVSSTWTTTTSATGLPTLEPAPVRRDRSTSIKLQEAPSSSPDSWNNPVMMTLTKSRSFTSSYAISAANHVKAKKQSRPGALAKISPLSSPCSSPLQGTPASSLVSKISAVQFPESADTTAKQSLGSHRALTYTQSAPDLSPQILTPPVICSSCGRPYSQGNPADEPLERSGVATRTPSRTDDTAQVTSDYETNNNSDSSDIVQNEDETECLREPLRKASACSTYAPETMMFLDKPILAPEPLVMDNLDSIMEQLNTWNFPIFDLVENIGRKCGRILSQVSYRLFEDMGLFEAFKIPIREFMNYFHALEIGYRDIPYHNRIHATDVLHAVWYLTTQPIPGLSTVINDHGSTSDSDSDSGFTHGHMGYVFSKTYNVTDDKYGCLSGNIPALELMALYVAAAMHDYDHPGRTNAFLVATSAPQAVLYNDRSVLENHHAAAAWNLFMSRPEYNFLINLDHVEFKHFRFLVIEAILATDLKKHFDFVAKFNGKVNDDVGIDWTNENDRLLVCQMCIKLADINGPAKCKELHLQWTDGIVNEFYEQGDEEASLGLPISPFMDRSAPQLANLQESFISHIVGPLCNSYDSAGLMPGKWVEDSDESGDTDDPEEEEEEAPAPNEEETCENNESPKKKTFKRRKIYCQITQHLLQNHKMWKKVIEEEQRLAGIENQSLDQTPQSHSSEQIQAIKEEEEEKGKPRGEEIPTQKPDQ
Histone deacetylase 3, sequence (O15379 whole entry): as the sequence (O15379 whole entry, the tested form may be a part) above

In general, IC50 refers to the concentration that inhibits the measured activity by half. Consider `CCCc1nn(C)c2c(=O)[nH]c(-c3cc(Cc4ccc(CC(=O)NO)cc4)ccc3OCC)nc12`, for which the IC50 on Histone deacetylase 1 [1] is > 20000 nM; on Histone deacetylase 2 [2], > 20000 nM; in data set [3], > 20000 nM; in data set [4] it was 162 nM; in data set [5], 15 nM. In addition, the CC50 at 72 h in data set [6] came out at 5490 nM. In addition, the Papp at 18 h, 50 µM in data set [7] was 2.94 ×10⁻⁶ cm/s.
For `CCCc1nn(C)c2c(=O)[nH]c(-c3cc(Cc4ccc(C(=O)NO)cc4)ccc3OCC)nc12`, the IC50 came out at 673 nM on Histone deacetylase 1 [1]; 3860 nM on Histone deacetylase 2 [2]; 1350 nM in data set [3]; 62 nM in data set [4]; 48 nM in [5]. For the same compound, the CC50 at 72 h in data set [6] came to 14200 nM. In [7], the Papp at 18 h, 50 µM is 2.16 ×10⁻⁶ cm/s. The fold induction at 0.1 µM in the data set “cells [8]” is 1.1. Besides, the fold induction at 0.5 µM in “cells [9]” is 3.2. Moreover, the fold induction at 1 µM in “cells [10]” came to 6.5.
In the case of `CCCc1nc(C)c2c(=O)[nH]c(-c3cc(-c4ccc(C(=O)NO)cc4)ccc3OCC)nn12`, the IC50 at Histone deacetylase 1 [1] was 4100 nM; on Histone deacetylase 2 [2] it was > 20000 nM; in [4], 326 nM; in data set [5], 2 nM. In addition, the CC50 at 72 h in [6] was > 100000 nM. The Papp at 18 h, 10 µM in [11] is 2.7 ×10⁻⁶ cm/s. Moreover, in the data set “cells [8]”, the fold induction at 0.1 µM turned out to be 1.3. Moreover, the fold induction at 0.5 µM in “cells [9]” stood at 2.3. In addition, the fold induction at 1 µM in “cells [10]” came to 2.8.
Take `CCCc1nc(C)c2c(=O)[nH]c(-c3cc(CC4CC(C(=O)NO)C4)ccc3OCC)nn12` (stereo not given): the IC50 in data set [12] came to 5 nM; against Histone deacetylase 1 [13] it was 286 nM; against Histone deacetylase 2 [14] it was 1260 nM; on Histone deacetylase 3, 854 nM; in data set [15], 110 nM.
In turn, `CCCc1nn(C)c2c(=O)[nH]c(-c3cc(CC4CC(C(=O)NO)C4)ccc3OCC)nc12` (stereo not given) yielded an IC50 in data set [16] of 1800 nM.
Consider `CN1CCc2c(c3ccccc3n2Cc2ccc(C(=O)NO)cc2)C1` [TUBASTATIN A], for which, in data set [17], the “inhibition (INH)” value is “Not Active”. Moreover, the CC50 at 72 h in [6] amounted to […]. Also, the Papp at 18 h, 50 µM in data set [7] is 1.77 ×10⁻⁶ cm/s.
